Reference: US6376502B1, “Osteoporosis compounds” (priority 1997, dated 2002)

Columns and labels:
[1] = system: Bone Morphogenetic Protein 7 (BMP-7) expression in wild type 293S cells; test: Kidney regeneration assay: BMP-7 expression by Northern blot in wild type 293S cells; format: cell-based, human; details: parental 293S cell line, 10^-6M, RNA at 8, 16 and 24 hours
Protocol: (§1) 293S and EP2 293S cells are grown in Dulbecco's Modified Egale medium (DMEM, Gibco, BRL; Gaithersburg, Md.). […] Cells are harvested and RNA is extracted at 8, 16 and 24 hours. Northern blot analysis of total ([…]) is carried out by probing the blots with ^32P-labeled BMP-7 probe. The blots are normalized for RNA loading by hybridization with ^32P-labeled 18s ribosomal RNA probe. […] Given the known role of BMP-7 in kidney regeneration and the ability of an prostaglandin agonist to induce BMP-7 expression in 293S kidney cells in a time and receptor specific manner indicates a role for prostaglandin agonist in kidney regeneration.

[2] = system: Bone Morphogenetic Protein 7 (BMP-7) expression in 293S cells transfected with EP2; test: Kidney regeneration assay: BMP-7 expression by Northern blot in EP2 293S cells; format: cell-based, human; details: 10^-6M, RNA at 8, 16 and 24 hours, time dependent
Protocol: as §1

CCCCC[C@H](O)/C=C/[C@H]1[C@H](O)CC(=O)[C@@H]1C/C=C\CCCC(=O)O [PGE2, Prostaglandin E2]
induction of BMP-7 expression [1]: generally not observed | induction of BMP-7 expression [2]: induce the expression of BMP-7
